According to article PMC4447944 (The Journal of Biological Chemistry, 2015):

Assays:
hERβ = target: T1, hERβ (Homo sapiens, UniProt Q92731); assay: Nuclear hormone receptor assay (Eurofins-CEREP); details: read-out: Relative IC50
T1 construct: Eurofins-CEREP

hPPARα = target: T2, hPPARα (Homo sapiens, UniProt Q07869); assay: Nuclear hormone receptor assay (Eurofins-CEREP); details: read-out: Relative IC50
T2 construct: Eurofins-CEREP

hEPHB3 = target: T3, hEPHB3 (Homo sapiens, UniProt P54753); assay: KINOMEscan; format: binding
T3 construct: purchased DiscoverX

hGSK3B = target: T4, hGSK3B (Homo sapiens, UniProt P49841); assay: KINOMEscan; format: binding
T4 construct: purchased DiscoverX

hULK2 = target: T5, hULK2 (Homo sapiens, UniProt Q8IYT8); assay: KINOMEscan; format: binding
T5 construct: purchased DiscoverX

hLKB1 = target: T6, hLKB1 (Homo sapiens, UniProt Q15831); assay: KINOMEscan; format: binding
T6 construct: purchased DiscoverX (KINOMEscan platform)

hBRAF = target: T7, hBRAF (Homo sapiens, UniProt P15056); assay: KINOMEscan; format: binding
T7 construct: purchased DiscoverX

hDYRK1B = target: T8, hDYRK1B (Homo sapiens, UniProt Q9Y463); assay: KINOMEscan; format: binding; details: read-out: Inhibition at the 20 μM dose
T8 construct: purchased DiscoverX

hBRSK1 = target: T9, hBRSK1 (Homo sapiens, UniProt Q8TDC3); assay: KINOMEscan; format: binding
T9 construct: purchased DiscoverX

hTNK2 = target: T10, hTNK2 (Homo sapiens, UniProt Q07912); assay: KINOMEscan; format: binding
T10 construct: purchased DiscoverX

hKIT = target: T11, hKIT (Homo sapiens, UniProt P10721); assay: KINOMEscan; format: binding
T11 construct: purchased DiscoverX (KINOMEscan panel)

hSGK3 = target: T12, hSGK3 (Homo sapiens, UniProt Q96BR1); assay: KINOMEscan; format: binding
T12 construct: purchased DiscoverX (KINOMEscan platform)

hJNK1 = target: T13, hJNK1 (Homo sapiens, UniProt P45983); assay: KINOMEscan; format: binding
T13 construct: purchased DiscoverX (KINOMEscan panel)

hIKK-epsilon = target: T14, hIKK-epsilon (Homo sapiens, UniProt Q14164); assay: KINOMEscan; format: binding
T14 construct: purchased DiscoverX (KINOMEscan panel)

hRIOK1 = target: T15, hRIOK1 (Homo sapiens, UniProt Q9BRS2); assay: KINOMEscan; format: binding
T15 construct: purchased DiscoverX (KINOMEscan platform)

hTGFBR2 = target: T16, hTGFBR2 (Homo sapiens, UniProt P37173); assay: KINOMEscan; format: binding
T16 construct: purchased DiscoverX

hSRMS = target: T17, hSRMS (Homo sapiens, UniProt Q9H3Y6); assay: KINOMEscan; format: binding
T17 construct: purchased DiscoverX (KINOMEscan platform)

hFLT3 = target: T18, hFLT3 (Homo sapiens, UniProt P36888); assay: KINOMEscan; format: binding
T18 construct: purchased DiscoverX

hTXK = target: T19, hTXK (Homo sapiens, UniProt P42681); assay: KINOMEscan; format: binding
T19 construct: purchased DiscoverX

hMKNK1 = target: T20, hMKNK1 (Homo sapiens, UniProt Q9BUB5); assay: KINOMEscan; format: binding
T20 construct: purchased DiscoverX

hMET = target: T21, hMET (Homo sapiens, UniProt P08581); assay: KINOMEscan; format: binding
T21 construct: purchased DiscoverX

hTEC = target: T22, hTEC (Homo sapiens, UniProt P42680); assay: KINOMEscan; format: binding
T22 construct: purchased DiscoverX

hMAP3K4 = target: T23, hMAP3K4 (Homo sapiens, UniProt Q9Y6R4); assay: KINOMEscan; format: binding
T23 construct: purchased DiscoverX (KINOMEscan platform)

hADRα2A = target: T24, hADRα2A (Homo sapiens, UniProt P08913); assay: β-arrestin Antagonist (Eurofins-CEREP); details: read-out: % Effect, Inhibition
T24 sequence (P08913 1-465): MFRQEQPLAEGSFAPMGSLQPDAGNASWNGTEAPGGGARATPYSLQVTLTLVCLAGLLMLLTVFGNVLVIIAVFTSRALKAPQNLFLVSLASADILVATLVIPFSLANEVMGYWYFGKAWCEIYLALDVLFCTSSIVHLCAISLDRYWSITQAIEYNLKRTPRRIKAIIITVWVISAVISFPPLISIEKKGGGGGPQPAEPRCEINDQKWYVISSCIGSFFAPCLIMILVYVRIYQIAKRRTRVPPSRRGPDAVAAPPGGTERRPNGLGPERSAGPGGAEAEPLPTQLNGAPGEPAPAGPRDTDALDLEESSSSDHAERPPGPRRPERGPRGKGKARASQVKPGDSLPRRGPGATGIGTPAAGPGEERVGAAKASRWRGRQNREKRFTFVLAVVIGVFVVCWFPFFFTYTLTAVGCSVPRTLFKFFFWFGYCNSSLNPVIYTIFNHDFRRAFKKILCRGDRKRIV

h5HT2B = h5HT2B (Homo sapiens, UniProt P41595); assay: Calcium Mobilization Potentiation (Eurofins-CEREP); details: @ 10 μM
hEPHA3 = target: T25, hEPHA3 (Homo sapiens, UniProt P29320); assay: KINOMEscan; format: binding
T25 construct: purchased DiscoverX

hSNARK = target: T26, hSNARK (Homo sapiens, UniProt Q9H093); assay: KINOMEscan; format: binding
T26 construct: purchased DiscoverX (KINOMEscan platform)

hCAMK2G = target: T27, hCAMK2G (Homo sapiens, UniProt Q13555); assay: KINOMEscan; format: binding
T27 construct: purchased DiscoverX

hERK1 = target: T28, hERK1 (Homo sapiens, UniProt P27361); assay: KINOMEscan; format: binding
T28 construct: purchased DiscoverX

hTYK2(JH1Dom.-catalytic) = target: T29, hTYK2(JH1Dom.-catalytic) (Homo sapiens, UniProt P29597); assay: KINOMEscan; format: binding
T29 construct: hTYK2(JH1Dom.-catalytic); purchased DiscoverX

hCLK2 = target: T30, hCLK2 (Homo sapiens, UniProt P49760); assay: KINOMEscan; format: binding
T30 construct: purchased DiscoverX

hADORA3 = target: T31, hADORA3 (Homo sapiens, UniProt P0DMS8); assay: cAMP Potentiation (Eurofins-CEREP); details: @ 10 μM
T31 sequence (P0DMS8 1-318): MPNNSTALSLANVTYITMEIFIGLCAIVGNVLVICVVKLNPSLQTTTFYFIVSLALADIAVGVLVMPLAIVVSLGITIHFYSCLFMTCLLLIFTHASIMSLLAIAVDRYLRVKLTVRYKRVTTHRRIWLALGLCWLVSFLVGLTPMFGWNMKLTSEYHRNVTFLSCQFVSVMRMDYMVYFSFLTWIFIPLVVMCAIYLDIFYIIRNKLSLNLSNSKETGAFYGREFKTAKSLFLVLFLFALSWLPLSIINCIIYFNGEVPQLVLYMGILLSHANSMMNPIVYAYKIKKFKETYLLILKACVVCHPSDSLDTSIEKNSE

T2 sequence (Q07869 whole entry): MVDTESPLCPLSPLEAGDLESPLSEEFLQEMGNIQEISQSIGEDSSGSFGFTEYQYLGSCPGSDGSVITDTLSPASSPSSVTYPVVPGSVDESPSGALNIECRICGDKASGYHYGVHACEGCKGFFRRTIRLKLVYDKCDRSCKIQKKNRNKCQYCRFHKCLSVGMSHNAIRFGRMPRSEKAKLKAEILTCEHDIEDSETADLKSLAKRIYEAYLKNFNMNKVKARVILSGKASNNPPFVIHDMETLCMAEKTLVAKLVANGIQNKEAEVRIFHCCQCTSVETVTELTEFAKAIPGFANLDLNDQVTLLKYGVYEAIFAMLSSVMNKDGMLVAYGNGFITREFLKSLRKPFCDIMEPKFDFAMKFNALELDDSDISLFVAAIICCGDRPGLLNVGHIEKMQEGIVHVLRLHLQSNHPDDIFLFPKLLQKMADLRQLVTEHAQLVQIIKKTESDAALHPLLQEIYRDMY
T3 sequence (P54753 34-998): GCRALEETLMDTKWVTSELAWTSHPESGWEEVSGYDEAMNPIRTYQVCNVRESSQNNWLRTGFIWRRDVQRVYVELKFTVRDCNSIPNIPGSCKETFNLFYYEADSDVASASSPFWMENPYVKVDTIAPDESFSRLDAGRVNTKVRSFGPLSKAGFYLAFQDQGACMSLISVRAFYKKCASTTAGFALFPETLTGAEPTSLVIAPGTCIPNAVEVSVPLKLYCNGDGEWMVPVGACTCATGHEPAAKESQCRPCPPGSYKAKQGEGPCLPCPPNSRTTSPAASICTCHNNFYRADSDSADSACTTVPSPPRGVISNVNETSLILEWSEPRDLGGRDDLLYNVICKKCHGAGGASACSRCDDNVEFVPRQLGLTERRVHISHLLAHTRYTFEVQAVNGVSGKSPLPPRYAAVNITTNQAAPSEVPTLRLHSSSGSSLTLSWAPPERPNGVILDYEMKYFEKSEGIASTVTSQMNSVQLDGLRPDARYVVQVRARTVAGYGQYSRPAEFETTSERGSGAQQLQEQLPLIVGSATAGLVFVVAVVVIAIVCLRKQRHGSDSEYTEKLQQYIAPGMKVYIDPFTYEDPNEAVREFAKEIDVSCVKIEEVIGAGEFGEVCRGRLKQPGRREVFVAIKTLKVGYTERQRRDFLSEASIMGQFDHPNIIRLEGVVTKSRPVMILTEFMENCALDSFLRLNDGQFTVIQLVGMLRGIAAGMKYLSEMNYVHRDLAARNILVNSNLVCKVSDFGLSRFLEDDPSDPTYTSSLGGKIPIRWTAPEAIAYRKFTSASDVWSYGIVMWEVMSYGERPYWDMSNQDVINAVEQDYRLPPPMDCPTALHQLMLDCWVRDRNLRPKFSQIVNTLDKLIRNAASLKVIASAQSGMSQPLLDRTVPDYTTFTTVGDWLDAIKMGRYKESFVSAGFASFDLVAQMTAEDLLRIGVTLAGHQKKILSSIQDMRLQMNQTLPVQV
T26 sequence (Q9H093 whole entry): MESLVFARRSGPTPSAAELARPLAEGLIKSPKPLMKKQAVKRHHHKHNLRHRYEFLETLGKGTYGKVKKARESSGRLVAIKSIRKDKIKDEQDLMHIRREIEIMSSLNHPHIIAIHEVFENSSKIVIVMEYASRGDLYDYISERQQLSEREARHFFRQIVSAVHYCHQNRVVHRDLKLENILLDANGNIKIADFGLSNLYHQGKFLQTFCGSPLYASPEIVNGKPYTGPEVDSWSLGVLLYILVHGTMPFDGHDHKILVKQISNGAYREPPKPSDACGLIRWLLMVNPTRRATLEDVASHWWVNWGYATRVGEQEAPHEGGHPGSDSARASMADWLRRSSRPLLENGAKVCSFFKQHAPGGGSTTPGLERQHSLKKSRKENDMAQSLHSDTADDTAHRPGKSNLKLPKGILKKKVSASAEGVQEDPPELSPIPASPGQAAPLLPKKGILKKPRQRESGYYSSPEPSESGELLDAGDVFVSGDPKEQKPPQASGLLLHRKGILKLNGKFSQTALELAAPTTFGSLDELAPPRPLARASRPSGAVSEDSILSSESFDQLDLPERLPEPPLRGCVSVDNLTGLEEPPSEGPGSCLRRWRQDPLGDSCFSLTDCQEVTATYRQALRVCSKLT
T19 sequence (P42681 whole entry): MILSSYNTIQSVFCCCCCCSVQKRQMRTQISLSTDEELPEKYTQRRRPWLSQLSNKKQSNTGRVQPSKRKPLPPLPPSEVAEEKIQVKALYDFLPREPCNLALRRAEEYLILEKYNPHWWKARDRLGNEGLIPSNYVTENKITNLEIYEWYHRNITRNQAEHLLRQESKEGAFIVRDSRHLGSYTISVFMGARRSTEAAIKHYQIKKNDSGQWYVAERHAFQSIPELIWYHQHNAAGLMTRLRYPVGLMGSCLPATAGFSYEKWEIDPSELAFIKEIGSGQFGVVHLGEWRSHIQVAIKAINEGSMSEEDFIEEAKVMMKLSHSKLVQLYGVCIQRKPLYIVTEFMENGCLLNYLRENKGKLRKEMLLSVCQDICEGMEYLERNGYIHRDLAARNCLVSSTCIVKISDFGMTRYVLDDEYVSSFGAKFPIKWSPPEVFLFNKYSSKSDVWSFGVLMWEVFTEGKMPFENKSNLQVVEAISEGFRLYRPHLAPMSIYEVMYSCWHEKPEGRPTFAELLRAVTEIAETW
T10 sequence (Q07912 whole entry): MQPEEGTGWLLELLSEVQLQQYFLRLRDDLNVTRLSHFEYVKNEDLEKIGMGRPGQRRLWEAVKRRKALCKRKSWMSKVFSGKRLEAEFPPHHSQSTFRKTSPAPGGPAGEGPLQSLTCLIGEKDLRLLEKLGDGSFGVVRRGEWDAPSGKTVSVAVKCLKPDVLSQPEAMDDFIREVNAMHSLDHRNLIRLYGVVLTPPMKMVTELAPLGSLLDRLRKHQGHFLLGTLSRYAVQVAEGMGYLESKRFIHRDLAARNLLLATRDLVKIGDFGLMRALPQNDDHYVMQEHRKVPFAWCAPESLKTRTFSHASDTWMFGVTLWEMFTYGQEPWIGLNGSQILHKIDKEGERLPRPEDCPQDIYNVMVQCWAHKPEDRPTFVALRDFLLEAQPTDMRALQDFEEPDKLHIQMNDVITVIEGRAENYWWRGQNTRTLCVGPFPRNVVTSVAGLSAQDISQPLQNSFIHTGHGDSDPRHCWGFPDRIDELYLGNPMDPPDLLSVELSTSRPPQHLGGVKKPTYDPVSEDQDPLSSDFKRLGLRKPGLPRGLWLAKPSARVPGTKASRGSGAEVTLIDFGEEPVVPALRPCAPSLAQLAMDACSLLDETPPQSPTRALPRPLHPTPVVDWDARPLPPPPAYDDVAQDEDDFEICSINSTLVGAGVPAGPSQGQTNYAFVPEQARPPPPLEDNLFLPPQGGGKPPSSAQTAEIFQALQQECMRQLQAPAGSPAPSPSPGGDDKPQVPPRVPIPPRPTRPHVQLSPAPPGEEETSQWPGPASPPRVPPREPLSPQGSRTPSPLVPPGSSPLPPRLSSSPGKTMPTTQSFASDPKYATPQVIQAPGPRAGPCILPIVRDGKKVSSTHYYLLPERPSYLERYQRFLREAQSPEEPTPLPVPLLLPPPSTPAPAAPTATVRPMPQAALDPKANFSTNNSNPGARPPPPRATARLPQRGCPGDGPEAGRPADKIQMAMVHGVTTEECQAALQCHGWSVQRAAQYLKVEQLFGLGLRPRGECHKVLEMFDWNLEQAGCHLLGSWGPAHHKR
T29 sequence (P29597 897-1176 limits assumed): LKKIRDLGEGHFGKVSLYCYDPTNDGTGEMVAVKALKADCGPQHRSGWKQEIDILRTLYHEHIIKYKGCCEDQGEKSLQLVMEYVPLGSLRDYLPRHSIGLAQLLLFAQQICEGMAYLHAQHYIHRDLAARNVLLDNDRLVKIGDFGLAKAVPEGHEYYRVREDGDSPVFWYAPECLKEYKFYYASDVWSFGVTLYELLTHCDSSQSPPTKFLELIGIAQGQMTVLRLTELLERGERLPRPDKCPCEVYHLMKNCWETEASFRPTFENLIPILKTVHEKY
T9 sequence (Q8TDC3 whole entry): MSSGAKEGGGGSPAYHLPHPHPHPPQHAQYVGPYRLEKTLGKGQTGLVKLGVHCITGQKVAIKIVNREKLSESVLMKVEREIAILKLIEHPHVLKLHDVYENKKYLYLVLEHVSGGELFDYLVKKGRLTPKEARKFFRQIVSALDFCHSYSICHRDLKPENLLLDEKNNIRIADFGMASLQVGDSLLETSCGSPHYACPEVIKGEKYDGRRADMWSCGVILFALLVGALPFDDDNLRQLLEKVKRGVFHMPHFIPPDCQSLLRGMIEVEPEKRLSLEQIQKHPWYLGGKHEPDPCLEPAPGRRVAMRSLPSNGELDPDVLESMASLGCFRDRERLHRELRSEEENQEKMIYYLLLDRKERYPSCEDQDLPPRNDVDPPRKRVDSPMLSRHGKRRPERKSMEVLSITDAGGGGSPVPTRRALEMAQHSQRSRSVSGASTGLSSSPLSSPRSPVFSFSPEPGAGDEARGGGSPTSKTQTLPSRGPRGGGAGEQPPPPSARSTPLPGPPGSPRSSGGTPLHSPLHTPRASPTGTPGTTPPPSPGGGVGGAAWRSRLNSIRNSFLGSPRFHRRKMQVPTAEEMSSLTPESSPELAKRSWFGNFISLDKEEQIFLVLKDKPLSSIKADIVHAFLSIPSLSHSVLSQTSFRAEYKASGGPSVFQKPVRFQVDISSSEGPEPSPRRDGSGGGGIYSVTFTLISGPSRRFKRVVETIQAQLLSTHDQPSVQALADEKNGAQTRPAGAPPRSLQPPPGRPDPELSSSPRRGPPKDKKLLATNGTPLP

Cc1cn(CCN2CCN(c3ccccc3-c3cc(C#N)cc(C(=O)NCCCN4CCCC4)c3)CC2)c2ccccc12 [LLY-507, 3-cyano-5-{2-[4-[2-(3-methylindol-1-yl)ethyl]piperazin-1-yl]-phenyl}-N-[(3-pyrrolidin-1-yl)propyl]benzamide]
IC50 (hERβ): > 10 µM
IC50 (hPPARα): > 10 µM
IC50 (hEPHB3): > 20 µM
IC50 (hGSK3B): > 20 µM
IC50 (hULK2): > 20 µM
IC50 (hLKB1): > 20 µM
IC50 (hBRAF): > 20 µM
inhibition at 20 µM (hDYRK1B): < 50%
IC50 (hBRSK1): > 20 µM
IC50 (hTNK2): > 20 µM
IC50 (hKIT): > 20 µM
IC50 (hSGK3): > 20 µM
IC50 (hJNK1): > 20 µM
IC50 (hIKK-epsilon): > 20 µM
IC50 (hRIOK1): > 20 µM
IC50 (hTGFBR2): > 20 µM
IC50 (hSRMS): > 20 µM
IC50 (hFLT3): > 20 µM
IC50 (hTXK): > 20 µM
IC50 (hMKNK1): > 20 µM
IC50 (hMET): > 20 µM
IC50 (hTEC): > 20 µM
IC50 (hMAP3K4): > 20 µM
inhibition at 10 µM (hADRα2A): -27.7%
% Effect, Potentiation (h5HT2B): -7.3%
IC50 (hEPHA3): > 20 µM
IC50 (hSNARK): > 20 µM
IC50 (hCAMK2G): > 20 µM
IC50 (hERK1): > 20 µM
IC50 (hTYK2(JH1Dom.-catalytic)): > 20 µM
IC50 (hCLK2): > 20 µM
% Effect, Potentiation (hADORA3): -7.3%
